Measured values taken from patent publication US11795460B2, “Compositions and methods for TTR gene editing and treating ATTR amyloidosis” (Intellia Therapeutics, Inc., priority 2017, dated 2023).

Experiments:
TTR [1] = test: TTR editing in primary human hepatocytes electroporated with Spy Cas9 protein loaded with dgRNAs (Table 7); assay type: cell-based; details: dgRNA electroporated with Spy Cas9 protein (RNP)
Outline: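 Primary human or cynomolgus hepatocytes electroporated (Lonza P3 buffer, program EX-147) with Spy Cas9 RNP carrying pre-annealed crRNA/trRNA dual guides. Genomic DNA harvested at 24, 48 or 72 h; target amplicons sequenced by Illumina MiSeq. Percent editing = reads with indels or substitutions over total reads.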

TTR [2] = test: TTR editing in primary human hepatocytes transfected with Spy Cas9 protein (RNP) loaded with dgRNAs (Table 8); assay type: cell-based; details: dgRNA transfected with Spy Cas9 protein (RNP)
Outline: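 Primary human hepatocytes were lipofected (RNAiMAX) with RNP of Spy Cas9 (10 nM) plus pre-annealed crRNA (10 nM) and trRNA (10 nM) and harvested 24, 48 or 72 h later. Target-site amplicons were sequenced on Illumina MiSeq and aligned to hg38; percent editing = reads with indels or substitutions over total reads.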

TTR [3] = test: TTR editing in HEK293_Cas9 cells transfected with dgRNAs (Table 4); assay type: cell-based, human; details: HEK293_Cas9 cells (constitutively express Spy Cas9) transfected with dgRNAs
Outline: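 Spy Cas9-expressing HEK293 cells were transfected by lipofection with crRNA (25 nM) plus trRNA (25 nM) and harvested at 24, 48 or 72 h. The target site was PCR-amplified and sequenced on MiSeq. Percent editing is reads with indels or substitutions over total reads.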

TTR [4] = test: TTR editing in primary human hepatocytes transfected with Spy Cas9 mRNA and dgRNAs (Table 9); assay type: cell-based; details: dgRNA co-transfected with Spy Cas9 mRNA (SEQ ID NO:2)
Outline: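 PHH sequentially lipofected with Spy Cas9 mRNA (100 ng), then crRNA plus tracrRNA (25 nM each) dual-guide lipoplex. Cells harvested 24, 48 or 72 h post-transfection; TTR target amplicons sequenced on Illumina MiSeq, editing given as percent reads with indels or substitutions over total reads.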

Row | Sequence | Avg % Deletion (TTR [1]) [%] | Avg % Edit (TTR [1]) [%] | Avg % Insert (TTR [1]) [%] | Avg % Deletion (TTR [2]) [%] | Avg % Edit (TTR [2]) [%] | Avg % Insert (TTR [2]) [%] | Avg % Deletion (TTR [3]) [%] | Avg % Edit (TTR [3]) [%] | Avg % Insert (TTR [3]) [%] | Avg % Deletion (TTR [4]) [%] | Avg % Edit (TTR [4]) [%] | Avg % Insert (TTR [4]) [%]
1 | UUUGACCAUCAGAGGACACU (tested as dual guide RNA, chemistry not given here) [CR003344] | 6.10 | 39.40 | 33.30 | 4.48 | 35.45 | 30.97 | 29.54 | 33.87 | 4.32 | 9.20 | 31.50 | 22.40
2 | AGUGAGUCUGGAGAGCUGCA (tested as dual guide RNA, chemistry not given here) [CR003359] | 7.50 | 63.77 | 56.33 | 8.51 | 59.47 | 50.96 | 19.40 | 37.75 | 18.35 | 7.33 | 32.93 | 25.67
